Entries after “also recorded” stand apart in the source; their conditions may differ. Read-outs that look alike come from different tables or passages of the source.
What was measured:
[1] = test system: Human promyelocytic leukemia (HL60) cells; experiment: HL-60 differentiation (nitro blue tetrazolium reduction); type: cell-based; conditions: for EC50: HL-60 cells into monocytes, read-out: EC50, HL-60 cell differentiation
Protocol: The study drugs were dissolved in ethanol and the concentrations determined using UV spectrophotometry. Serial dilutions were prepared so that a range of drug concentrations could be tested without changing the final concentration of ethanol (≦0.2%) present in the cell cultures.
Human promyelocytic leukemia (HL60) cells were grown in RPMI-1640 medium containing 10% fetal bovine serum. The cells were incubated at 37° C. in the presence of 5% CO2.
HL60 cells were plated at 1.2×10^5 cells/ml. Eighteen hours after plating, cells in duplicate were treated with drug. Four days later, the cells were harvested and a nitro blue tetrazolium reduction assay was performed (Collins et al., 1979; J. Exp. Med. 149:969-974). The percentage of differentiated cells was determined by counting a total of 200 cells and recording the number that contained intracellular black-blue formazan deposits. Verification of differentiation to monocytic cells was determined by measuring phagocytic activity (data not shown).

[2] = test system: 24-hydroxylase (24Ohase) gene promoter in ROS 17/2.8 (bone) cells; experiment: In vitro transcription assay (24-hydroxylase promoter luciferase reporter); type: cell-based; conditions: for EC50: 24-hydroxylase (CYP-24) promoter driving luciferase reporter, read-out: EC50, transcriptional activity in bone cells; for transcriptional activity in bone cells (in words): FIG. 3
Protocol: Transcription activity was measured in ROS 17/2.8 (bone) cells that were stably transfected with a 24-hydroxylase (24Ohase) gene promoter upstream of a luciferase reporter gene (Arbour et al., 1998). Cells were given a range of doses. Sixteen hours after dosing the cells were harvested and luciferase activities were measured using a luminometer.
RLU=relative luciferase units.

[3] = biological target: T1, full-length recombinant rat vitamin D receptor (Rattus norvegicus, UniProt P13053); experiment: Vitamin D receptor binding (competition with [3H]-1,25(OH)2D3)
T1 construct: Full-length recombinant rat receptor was expressed in E. coli; histidine tag (C); made in house; host or cells: E. coli BL21 (DE3) Codon Plus RTL
T1 sequence (P13053 1-423): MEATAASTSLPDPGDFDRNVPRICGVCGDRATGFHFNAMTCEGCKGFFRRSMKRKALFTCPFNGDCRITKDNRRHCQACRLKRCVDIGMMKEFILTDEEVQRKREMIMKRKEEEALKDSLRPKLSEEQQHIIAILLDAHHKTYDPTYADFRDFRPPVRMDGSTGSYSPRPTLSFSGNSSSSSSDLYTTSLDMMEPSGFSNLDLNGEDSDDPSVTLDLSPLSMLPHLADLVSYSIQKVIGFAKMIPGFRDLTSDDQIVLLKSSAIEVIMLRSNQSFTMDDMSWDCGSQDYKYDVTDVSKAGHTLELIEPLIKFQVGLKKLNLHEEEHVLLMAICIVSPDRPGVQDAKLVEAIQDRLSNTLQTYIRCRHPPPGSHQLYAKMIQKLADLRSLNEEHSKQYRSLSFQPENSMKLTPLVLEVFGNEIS
Protocol: Full-length recombinant rat receptor was expressed in E. coli BL21 (DE3) Codon Plus RTL cells and purified to homogeneity using two different column chromatography systems. The first system was a nickel affinity resin that utilizes the C-terminal histidine tag on this protein. The protein that was eluted from this resin was further purified using ion exchange chromatography (S-Sepharose Fast Flow). Aliquots of the purified protein were quick frozen in liquid nitrogen and stored at −80° C. until use. For use in binding assays, the protein was diluted in TEDK50 (50 mM Tris, 1.5 mM EDTA, pH7.4, 5 mM DTT, 150 mM KCl) with 0.1% Chaps detergent. The receptor protein and ligand concentration were optimized such that no more than 20% of the added radiolabeled ligand was bound to the receptor.
Radiolabeled and unlabeled ligands were added to 100 mcl of the diluted protein at a final ethanol concentration of ≦10%, mixed and incubated overnight on ice to reach binding equilibrium. The following day, 100 mcl of hydroxylapatite slurry (50%) was added to each tube and mixed at 10-minute intervals for 30 minutes. The hydroxylapaptite was collected by centrifugation and then washed three times with Tris-EDTA buffer (50 mM Tris, 1.5 mM EDTA, pH 7.4) containing 0.5% Titron X-100. After the final wash, the pellets were transferred to scintillation vials containing 4 ml of Biosafe II scintillation cocktail, mixed and placed in a scintillation counter. Total binding was determined from the tubes containing only radiolabeled ligand.

C=C1/C(=C\C=C2/CCC[C@]3(C)[C@@H]([C@H](C)CCCC(C)(C)O)CC[C@@H]23)C[C@@H](O)C[C@@H]1O [1α,25-dihydroxyvitamin D3, reference compound]
EC50 [1]: 2 nM
EC50 [2]: 0.2 nM

C[C@H](CCCC(C)(C)O)C1CCC2/C(=C/C=C3/C[C@@H]4CCC=C4[C@H](O)C3)CCC[C@@]21C (stereo partly drawn) [DO-REVB, 3,2-cyclopentene-1α-25-dihydroxy-19-nor-vitamin D3]
Ki ([3]; full-length recombinant rat vitamin D receptor, read-out: Ki, competition with [3H]-1,25(OH)2D3 for binding to VDR): 2 nM
VDR affinity, times less potent than 1,25-(OH)2D3 ([3]; relative to 1,25-(OH)2D3): ~20 times
EC50 ([1]; Homo sapiens): 30 nM
HL-60 cell differentiation, times less potent than the natural hormone ([1]; relative to the natural hormone): ~10 times
EC50 [2]: 10 nM
transcriptional activity in bone cells (in words) [2]: weak transcriptional activity
transcription of the 24-hydroxylase gene, times less potent than 1,25-(OH)2D3 ([2]; relative to 1,25-(OH)2D3): ~20 times
gene transactivation, lower potency than the native hormone ([2]; relative to the native hormone): 2 fold

C[C@H](CCCC(C)(C)O)C1CCC2/C(=C/C=C3\C[C@@H]4CCC=C4[C@H](O)C3)CCC[C@@]21C (stereo partly drawn) [DO-REVA, 1,2-cyclopentene-25-hydroxy-19-nor-vitamin D3]
VDR binding activity (in words) ([3]; FIG. 1): little to no binding affinity; also recorded: little to no receptor binding activity
HL-60 cell differentiation activity (in words) ([1]; FIG. 2): little to no ability to induce differentiation; also recorded: little to no cellular differentiation activity
EC50 ([1]; Homo sapiens): > 1000 nM
EC50 [2]: > 1000 nM
transcriptional activity in bone cells (in words) [2]: weak transcriptional activity; also recorded: measurable transcription activity at the higher concentrations tested; also recorded: measurable transcriptional activity at the higher concentrations tested
